Results as given in patent US20220112187A1, “PYRAZOLOPYRIDINE AMINE COMPOUNDS FOR THE TREATMENT OF AUTOIMMUNE DISEASE” (Hoffmann-La Roche Inc., priority 2018, published 2022).

Target: T1, human TLR9 (Homo sapiens, UniProt Q9NR96)
T1 sequence (Q9NR96 26-1032): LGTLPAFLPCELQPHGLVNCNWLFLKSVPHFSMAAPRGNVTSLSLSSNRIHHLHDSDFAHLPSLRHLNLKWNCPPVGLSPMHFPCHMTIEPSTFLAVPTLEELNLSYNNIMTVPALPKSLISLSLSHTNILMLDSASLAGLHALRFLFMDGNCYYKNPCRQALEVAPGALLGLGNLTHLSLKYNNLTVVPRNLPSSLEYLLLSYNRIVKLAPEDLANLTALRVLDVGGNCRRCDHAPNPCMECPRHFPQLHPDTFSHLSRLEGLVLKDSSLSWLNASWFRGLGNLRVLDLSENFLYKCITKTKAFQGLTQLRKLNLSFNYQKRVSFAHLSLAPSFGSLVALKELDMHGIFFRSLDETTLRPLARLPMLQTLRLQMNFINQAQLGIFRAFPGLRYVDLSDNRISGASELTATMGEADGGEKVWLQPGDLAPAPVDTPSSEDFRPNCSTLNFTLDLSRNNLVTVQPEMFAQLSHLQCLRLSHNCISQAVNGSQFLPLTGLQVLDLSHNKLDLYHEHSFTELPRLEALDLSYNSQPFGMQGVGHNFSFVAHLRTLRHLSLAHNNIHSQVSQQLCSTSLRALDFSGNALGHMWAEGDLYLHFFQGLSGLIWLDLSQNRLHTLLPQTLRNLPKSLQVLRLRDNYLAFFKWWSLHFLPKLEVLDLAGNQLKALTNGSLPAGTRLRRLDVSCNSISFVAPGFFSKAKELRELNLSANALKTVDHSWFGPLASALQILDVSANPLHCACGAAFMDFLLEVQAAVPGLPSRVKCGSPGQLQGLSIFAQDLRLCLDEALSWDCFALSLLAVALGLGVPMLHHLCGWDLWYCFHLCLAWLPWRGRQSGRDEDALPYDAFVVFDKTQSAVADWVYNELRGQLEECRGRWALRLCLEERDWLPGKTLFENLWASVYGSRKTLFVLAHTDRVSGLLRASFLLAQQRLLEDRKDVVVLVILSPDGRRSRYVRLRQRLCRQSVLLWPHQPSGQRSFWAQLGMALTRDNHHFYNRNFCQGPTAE
Test: HEK293-Blue-hTLR-9 cells assay (SEAP reporter, ODN2006 stimulation)
Format: cell-based
Details: HEK293-Blue-hTLR9 cells, ODN2006 ligand, 20 hrs incubation
In short: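 HEK293-Blue cells stimulated with ODN2006 (10 μL of 20 uM added) plus serially diluted compound, 1% DMSO final, for 20 hrs at 37° C. SEAP in supernatant measured with QUANTI-Blue after 2 hrs at 37° C, absorbance at 620-655 nm; antagonism seen as reduced reporter signal.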

Row | IC50 [nM] | SMILES
1 | 1700 | C[C@@H]1CN(c2ccc(C#N)n3nccc23)C[C@H](CN2CCC3(CCCCN3)C2)O1 (stereo partly drawn) [Example 42, 4-[(2S,6R)-2-(2,6-diazaspiro[4.5]decan-2-ylmethyl)-6-methyl-morpholin-4-yl]pyrazolo[1,5-a]pyridine-7-carbonitrile]
2 | 290 | C[C@@H]1CN(c2ccc(C#N)n3nccc23)C[C@H](CN2C[C@H]3CC[C@@H](N(C)C)[C@H]3C2)O1 (racemic) [Example 75, 4-[(2S,6R)-2-[[4-(dimethylamino)-3,3a,4,5,6,6a-hexahydro-1H-cyclopenta[c]pyrrol-2-yl]methyl]-6-methyl-morpholin-4-yl]pyrazolo[1,5-a]pyridine-7-carbonitrile]
